Measured values published in US8173771B2, “Humanin receptor or humanin-like polypeptide receptor” (Keio Univeristy, priority 2005, dated 2012).
Peptide text beside a SMILES is read from it.

Test system: HN receptor (HNR; CNTF-R/WSX-1/gp130) on F11 cells
Experiment: Immunofluorescence-based binding assay (2): biotin-HN / biotin-HNG binding to F11 cells
Design: species or system mouse
Method: A) F11 cells were seeded on 96-well plates coated with poly-L-lysine (7×10^3 cells/well). An indicated amount of biotin-HN or biotin-HNG was added to the cells with or without 10 μM of unlabelled HNG or HNA, followed by a binding assay based on immunofluorescence reaction (2) (left panels). On the other hand, F11 cells were transfected with 0.5 μg of pcDNA3.1/GS-human CNTF-R, pEF1/MycHis-human WSX-1, and 1.0 μg of pCAG-human gp130. At 24 hrs after the transfection, the cells were re-seeded on 96-well plates coated with poly-L-lysine (7×10^3 cells/well). After 36 hrs the re-seeding, an indicated amount of biotin-HN or biotin-HNG was added to the cells with or without 10 μM of unlabeled HNG or HNA, followed by a binding assay based on immunofluorescence reaction (2) (right panels).
B) F11 cells were transfected with 0.5 μg of pRNA-U1.6/Shuttle vector, pRNA-U6.1/Shuttle-WSX-1 siRNA, pRNA-U6.1/Shuttle-CNTF-R siRNA, both pRNA-U6.1/Shuttle-WSX-1 siRNA and pRNA-U6.1/Shuttle-CNTF-R siRNA (0.5 μg each), pRNA-U6.1/Shuttle-FPR2 siRNA or pRNA-U6.1/Shuttle-LIFR siRNA. The total amount of vectors was adjusted to be 1.0 μg by including a backbone vector. At 24 hrs after the transfection, an indicated amount of biotin-HNG was added with or without unlabeled HNG, followed by a binding assay based on immunofluorescence reaction (2) at 72 hrs after the transfection.
E) F11 cells on 6-well plate (7×10^4 cells/well) were transfected with 1.0 μg of pRNA-U6.1/Shuttle vector, pRNA-U6.1/Shuttle-Bax siRNA, or both pRNA-U6.1/Shuttle-WSX-1 siRNA and pRNA-U6.1/Shuttle-CNTF-R siRNA (0.5 μg each). At 72 hrs after the transfection, the cells were added with an indicated amount of biotin-HN with or without unlabeled HN or HNA (100 μM) and subjected to an HN-binding assay based on immunofluorescence.
F11 cells (7×10^4/well in 6-well plates) were replated into 96-well plates (7×10^3 cells/well) at 24 hrs after transfection with indicated amounts of the plasmids encoding mycHis-WSX or V5-CNTF-R, and with PCAG-human gp130 if required. At 36 hrs after transfection, the cells were added with biotin-labeled HN or HNG of indicated concentrations in the presence or the absence of HNG (S14G-HN) or HNA (C8A-HN) of indicated concentrations (Hashimoto et al., 2001 a). After 6 hrs incubation, they were fixed with 4% paraformaldehyde in PBS for 30 min. After washing with PBS, cells were stained with FITC-conjugated avidin (Molecularprobe, Eugene, Oreg., USA). Immunofluorescence intensity was measured (excitation=485 nm, emission=535 nm) with a spectrofluorometer (Wallac1420 ARVOsx Multi Label Counter). Immunohistochemical analysis was done with a laser-scanning, confocal microscope LSM (Carl Zeiss, Germany).

CC[C@H](C)[C@H](NC(=O)[C@H](CCC(=O)O)NC(=O)CNC(=O)[C@@H](NC(=O)[C@H](CC(C)C)NC(=O)[C@H](CC(C)C)NC(=O)[C@H](CC(C)C)NC(=O)[C@H](CC(C)C)NC(=O)[C@H](CS)NC(=O)[C@H](CO)NC(=O)[C@H](Cc1ccccc1)NC(=O)CNC(=O)[C@H](CCCNC(=N)N)NC(=O)[C@@H]1CCCN1C(=O)[C@H](C)NC(=O)[C@@H](N)CCSC)[C@@H](C)O)C(=O)N[C@@H](CC(=O)O)C(=O)N[C@@H](CC(C)C)C(=O)N1CCC[C@H]1C(=O)N[C@H](C(=O)N[C@@H](CCCCN)C(=O)N[C@@H](CCCNC(=N)N)C(=O)N[C@@H](CCCNC(=N)N)C(=O)N[C@@H](C)C(=O)O)C(C)C [HNG, S14 G-Humanin] (H-MAPRGFSCLLLLTGEIDLPVKRRA-OH; N-terminus and C-terminus assumed)
binding to F11 cells (expression of endogenous CNTF-R and WSX-1 simultaneously decreased by siRNA): almost completely inhibited | binding to F11 cells (expression of endogenous CNTF-R or WSX-1 decreased by siRNA): significantly decreased
